Test results as given in US20020026053A1, “Novel 3-(substituted) -2- indolinones compounds and use thereof as inhibitors of protein kinase activity” (priority 1997, published 2002).

Experiments:
FLK-1 receptor = assay: FLK-1 Assay (cellular/catalytic ELISA, VEGF-stimulated phosphotyrosine); assay type: cell-based; parameters: concentration or dose not given beside the values
In short: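 Receptor phosphotyrosine ELISA: Flk-1-expressing NIH3T3 C7#3 cells, starved overnight in 0.1% FBS medium, received compound (1:200 final dilution, 0.5% DMSO) for 2 h at 37 °C, then VEGF. Anti-FLK-1-captured receptor was probed with anti-phosphotyrosine UB40 and peroxidase/ABTS read-out, relative to cells without compound.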

PDGF-R = PDGF-R Assay (cellular ELISA, U1242 cells); assay type: cell-based; parameters: concentration or dose not given beside the values
In short: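 Cellular ELISA for receptor autophosphorylation: after 2 hr test-compound treatment of serum-free U1242 cells at 37°C, ligand is added for 5–10 min, cells are lysed (HNTG) and receptor captured by specific antibody. Anti-phosphotyrosine plus secondary antibody with ABTS colour read at 410/630 nm, compared with compound-free control cells.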

Row | SMILES | Flk Kinase % Inhibition (P.110) (FLK-1 receptor) [%] | PDGF Kinase % Inhibition (P.119) (PDGF-R) [%]
1 | Cc1c(Br)cc(Br)c2c1C(=Cc1ccc(O)cc1)C(=O)N2 [10719/H07] | 2.4 | –
2 | Cc1c(Br)cc(Br)c2c1C(=Cc1ccc(N(C)C)cc1)C(=O)N2 [10719/H08] | 11.6 | –
3 | Cc1c(Br)cc(Br)c2c1C(=Cc1ccc(F)cc1Cl)C(=O)N2 [10719/H09] | 2.5 | –
4 | Cc1c(Br)cc(Br)c2c1C(=Cc1cccc([N+](=O)[O-])c1)C(=O)N2 [10719/H10] | −0.7 | –
5 | Cc1c(Br)cc(Br)c2c1C(=Cc1ccc(F)cc1C(F)(F)F)C(=O)N2 [10719/H11] | 12.3 | –
6 | Cc1c(Br)cc(Br)c2c1C(=Cc1c(F)cc(F)cc1F)C(=O)N2 [10720/H02] | 9.7 | –
7 | COc1cc(O)ccc1C=C1C(=O)Nc2c(Br)cc(Br)c(C)c21 [10720/H03] | 1.8 | –
8 | N#Cc1ccccc1C=C1C(=O)Nc2ccc(CCCl)cc21 [10735/G07] | 17.6 | 12.6
9 | O=C1Nc2ccc(CCCl)cc2C1=Cc1c(F)cccc1F [10735/G08] | 10.9 | 9.8
10 | O=C1Nc2ccc(CCCl)cc2C1=Cc1cccc2ccccc12 [10735/G09] | 15.9 | 2.2
11 | O=C1Nc2ccc(CCCl)cc2C1=Cc1ccc(Cl)cc1Cl [10735/G10] | 6.8 | −8.8
12 | O=C1Nc2ccc(CCCl)cc2C1=Cc1ccc(-c2ccccc2)cc1 [10735/G11] | 10.1 | −5.3
13 | Cc1ccccc1C=C1C(=O)Nc2c(Br)cc(Br)c(C)c21 [10735/H02] | 14.5 | −4.7
14 | Cc1c(Br)cc(Br)c2c1C(=Cc1ccc(F)c(F)c1)C(=O)N2 [10735/H03] | 7.4 | 1.2
15 | Cc1c(Br)cc(Br)c2c1C(=Cc1cc(F)cc(F)c1)C(=O)N2 [10735/H04] | 12.8 | 1.2
16 | Cc1c(Br)cc(Br)c2c1C(=Cc1cccc(C(F)(F)F)c1)C(=O)N2 [10735/H05] | 29.5 | 9.1

Row | SMILES | Flk Kinase % Inhibition (P.110) (FLK-1 receptor) [%] | PDGF Kinase % Inhibition (P.119) (PDGF-R) [%]
17 | Cc1c(Br)cc(Br)c2c1C(=Cc1cc(C(F)(F)F)cc(C(F)(F)F)c1)C(=O)N2 [10735/H06] | 25.9 | 6.4
18 | Cc1c(Br)cc(Br)c2c1C(=Cc1ccccc1C#N)C(=O)N2 [10735/H07] | 21.4 | −0.9
19 | Cc1c(Br)cc(Br)c2c1C(=Cc1c(F)cccc1F)C(=O)N2 [10735/H08] | 29.1 | −2.6
20 | Cc1c(Br)cc(Br)c2c1C(=Cc1cccc3ccccc13)C(=O)N2 [10735/H09] | 20.6 | 6.4
21 | Cc1c(Br)cc(Br)c2c1C(=Cc1ccc(Cl)cc1Cl)C(=O)N2 [10735/H10] | 24.0 | −0.2
22 | Cc1c(Br)cc(Br)c2c1C(=Cc1ccc(-c3ccccc3)cc1)C(=O)N2 [10735/H11] | 28.3 | 1.9
23 | O=C1Nc2c(Br)cc(Br)cc2C1=Cc1ccc(Cl)cc1 [10736/A02] | −6.0 | 24.2
24 | O=C1Nc2c(Br)cc(Br)cc2C1=Cc1ccccc1C(F)(F)F [10736/A03] | 5.7 | 31.6
25 | Cc1cccc(C=C2C(=O)Nc3c(Br)cc(Br)cc32)c1 [10736/A04] | −13.0 | 13.2
26 | Cc1ccc(C=C2C(=O)Nc3c(Br)cc(Br)cc32)cc1 [10736/A05] | −19.4 | 8.4
27 | O=C1Nc2c(Br)cc(Br)cc2C1=Cc1cccc(Cl)c1 [10736/A06] | −18.2 | 32.1
28 | O=C1Nc2c(Br)cc(Br)cc2C1=Cc1cccc(F)c1 [10736/A07] | −12.6 | 8.4
29 | O=C1Nc2c(Br)cc(Br)cc2C1=Cc1ccccc1F [10736/A08] | −13.4 | 11.0
30 | CCc1ccc(C=C2C(=O)Nc3c(Br)cc(Br)cc32)cc1 [10736/A09] | −8.7 | −6.5
31 | COc1cccc(C=C2C(=O)Nc3c(Br)cc(Br)cc32)c1 [10736/A10] | −11.0 | 5.8
